Where no end group is shown, it is not given here.
How the values were obtained:
Factor IX zymogen [1] = target: T1, Factor IX zymogen (Homo sapiens, UniProt P00740); assay: Plasma-derived Factor IX affinity chromatography; type: binding; parameters: A 1.0 ml injection of human citrated plasma was contacted with an acetyl-YANKGY-TSK column; from tissue; host or cells: human citrated plasma; conditions: 1.0 ml human citrated plasma
Description: (§1) Affinity Purification of Target Protein Affinity purification of target protein was used to assess the ability to purify proteins with the peptide sequences identified as being specific. […] The deprotected peptide-resin was dry packed into a blank column as described above and washed with 20 column volumes of 20% methanol/water, then 10 column volumes of Buffer A, and assayed by sequential 1.0 mL injections of 1) Buffer A blank, 2) 0.5% HSA, and 3) target protein in 0.5% HSA. Non-specifically bound proteins were washed off the column in a step gradient of 1.0M NaCl for two column volumes, and the target protein was eluted from the column in a weak acid solution.
Plasma-Derived Factor IX Affinity Chromatography The relevance of this library-derived peptide ligand is to purify human Factor IX zymogen from unpurified human plasma. A 1.0 ml injection of human citrated plasma was contacted with an acetyl-YANKGY-TSK column in the manner taught in the above example. Flow through and acid peaks were collected on ice and immediately assayed for total protein, SDS-PAGE and Western blot analyses. […] Samples were normalized to total protein as described before. There are numerous protein bands in the starting material, the predominant being albumin. The Factor IX band is not visible in any fraction in the Commassie stained gel. […] With one pass over the YANKGY-TSK affinity column, analyzing total protein and by Western blot, the approximate purification was 200 fold from plasma.

streptavidin = streptavidin (Streptomyces avidinii, UniProt P22629); conditions: well known in the art; cited from earlier work
Sequence of streptavidin (P22629 25-183, species assumed): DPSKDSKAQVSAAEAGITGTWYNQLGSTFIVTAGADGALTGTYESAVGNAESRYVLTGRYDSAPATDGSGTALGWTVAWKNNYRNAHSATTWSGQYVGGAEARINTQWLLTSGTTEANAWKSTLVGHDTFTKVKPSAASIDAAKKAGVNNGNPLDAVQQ

Factor IX zymogen [2] = target: T1, Factor IX zymogen; assay: Two color peptide library immunostaining chromatography of hexamer library; type: binding; parameters: purchased Enzyme Research Labs; South Bend, Ind; conditions: 6 beads isolated from two independent analyses
Description: (§2) HPLC Library Immuno-Assays To differentiate between detecting reagent-binding and target-binding peptide-resin beads, we developed a two color peptide library staining chromatography technique. FIG. 1 is a schematic of the preferred embodiment of the technique. All assays were performed on an Ultrafast Microprotein Analyzer in a 2.1 mm I.D.×150mm long stainless steel column (volume=520 μL) at 37° C. Dry library resin was packed into the column by vacuum, then the column was attached to the detector flow cell and washed with 20 column volumes of 20% methanol/water, 5 column volumes of 100% Buffer A (10 mM HEPES, 100 mM NaCl, 2.5 mM CaCl2, 20 mg/mL D-mannitol; all from Sigma Chemical Co.; St. Louis, Mo.), then 5 column volumes of 50% Buffer B (Buffer A with 1.0M NaCl) to clean the resin. The complete assay comprised of seven chromatography injection programs sequentially linked and executed as a batch (EXChrom Chromatography Data System, Scientific Software, Inc.; San Ramon, Calif.). Each injection program was 90 min long. At the start of each injection program, a 1.0 mL sample loop of reagent was injected at 200 μL/min for 3.5 min, then allowed to perfuse the column at 5 μL/min for 50 min before the flow increased to 400/μL/min for the duration of the run. At 60-75 min, a salt gradient from 0.1M to 1.0M NaCl eluted non-specific binding proteins. […]

Factor IX zymogen [3] = target: T1, Factor IX zymogen; assay: Factor IX/albumin affinity purification on peptide-resin column; type: binding; parameters: purchased Enzyme Research Labs; South Bend, Ind
Description: as §1
(§3) Factor IX/Albumin Affinity Purification The library-derived peptide identified above binds and purifies a mixture of a commercially available, highly purified Factor IX zymogen in a solution of human serum albumin. […] This peptide-resin was tested for its ability to bind Factor IX. […] However, this was eluted by the salt wash as evidenced by the absence of a peak during the acid elution. In contrast, when Factor IX was added to the HSA, there was a distinct peak eluted by the acid.
A direct correlation was seen between the acid peak area and the amount of Factor IX injected. […] Aliquots of fractions taken from this run were assayed for Factor IX detection by ELISA (data not shown). […] Factor IX may be partially denatured during the acid elution which could account for the lack of full recovery based on ELISA results. Indeed, controls of adding acid to Factor IX prior to analysis in the ELISA do show a 40 to 50% decrease in the ELISA signal. The remainder of the fractions were precipitated in cold (-20° C.) acetone and analyzed by reducing SDS-PAGE, normalizing sample to total protein.

[4] = target: T2, human serum albumin (HSA) (Homo sapiens, UniProt P02768); assay: Binding of carrier protein to peptide-resin column; conditions: 0.5% HSA; eluted by the salt wash, no peak during acid elution
T2 construct: purchased Miles, Inc., Clayton, N.C
T2 sequence (P02768 25-609): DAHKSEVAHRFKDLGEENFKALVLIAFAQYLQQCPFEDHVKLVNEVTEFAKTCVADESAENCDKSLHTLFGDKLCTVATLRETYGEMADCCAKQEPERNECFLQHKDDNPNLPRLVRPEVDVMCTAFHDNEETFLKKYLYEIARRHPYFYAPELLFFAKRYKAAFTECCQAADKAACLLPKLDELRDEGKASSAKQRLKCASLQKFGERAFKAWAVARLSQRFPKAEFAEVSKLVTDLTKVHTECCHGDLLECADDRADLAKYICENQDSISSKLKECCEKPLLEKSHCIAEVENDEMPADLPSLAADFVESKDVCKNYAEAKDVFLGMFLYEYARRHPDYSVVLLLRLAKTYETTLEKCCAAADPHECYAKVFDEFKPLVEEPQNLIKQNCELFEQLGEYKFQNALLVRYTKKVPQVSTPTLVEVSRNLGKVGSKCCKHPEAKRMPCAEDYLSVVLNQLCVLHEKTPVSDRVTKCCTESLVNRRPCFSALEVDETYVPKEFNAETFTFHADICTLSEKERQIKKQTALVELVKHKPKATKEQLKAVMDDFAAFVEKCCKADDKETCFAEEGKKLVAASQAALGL
Description: as §1, §3

RNase S protein = target: T3, RNase S protein (Bos taurus, UniProt P61823); assay: HPLC affinity chromatography validation on peptide-resin; type: binding; conditions: 42 nmoles RNase S protein injected; 2 % acetic acid wash, peak at 22 min
T3 sequence (P61823 47-150 limits assumed): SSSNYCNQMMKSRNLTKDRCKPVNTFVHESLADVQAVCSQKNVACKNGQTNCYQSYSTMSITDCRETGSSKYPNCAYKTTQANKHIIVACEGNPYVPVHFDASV
Description: as §1
Ribonuclease S Protein Affinity Chromatography In this embodiment the HPLC affinity methodology is validated by the previously described RNase S protein/YNFEVL peptide system. Peptide synthesis was performed as taught in the previous section. […] 42 nmoles of RNase S protein was injected in a 1.0 mL volume onto the column at 200 μL/min for 3 min. The flow was decreased to 5 μL/min for 5 min to perfuse the column, then increased to 400 μL/min to wash off the unbound protein. At 13 min, an injection of 1.0 mL Buffer A with 1.0M NaCl eluted non-specific binding proteins, then the column was returned to 0.1M NaCl until 19 min when a steep gradient to 2 % acetic acid in water and a flow of 800 μL/min began. […]

[5] = target: T4, Ribonuclease S (RNase S) protein (Bos taurus, UniProt P61823); assay: Two color peptide library immunostaining chromatography (HPLC library immunoassay), validation; type: binding; conditions: peptide-resin diluted 1:20 w/w with TSK-Blank
T4 sequence (P61823 47-150 limits assumed): T3 sequence (P61823 47-150 limits assumed)
Description: as §2

T1 sequence (P00740 29-461 limits assumed): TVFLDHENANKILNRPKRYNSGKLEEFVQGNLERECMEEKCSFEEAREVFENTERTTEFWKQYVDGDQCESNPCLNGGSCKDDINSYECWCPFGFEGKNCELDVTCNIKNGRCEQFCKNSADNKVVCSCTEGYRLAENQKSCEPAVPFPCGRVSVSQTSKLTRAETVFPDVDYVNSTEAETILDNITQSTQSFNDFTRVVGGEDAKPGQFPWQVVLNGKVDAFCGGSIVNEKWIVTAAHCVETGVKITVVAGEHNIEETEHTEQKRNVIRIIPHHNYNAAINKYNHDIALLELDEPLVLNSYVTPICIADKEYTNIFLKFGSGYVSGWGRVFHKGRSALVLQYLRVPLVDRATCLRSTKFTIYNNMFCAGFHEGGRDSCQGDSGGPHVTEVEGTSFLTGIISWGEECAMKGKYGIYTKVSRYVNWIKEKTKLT

Ac-YANKGY [acetyl-YANKGY-TSK]
Factor IX in acid peak by Western blot (Factor IX zymogen [1]): a very large band in the acid peak | Factor IX in flow through by Western blot (Factor IX zymogen [1]): no Factor IX in the flow through

HPQ
binding to streptavidin (streptavidin): will bind streptavidin

YANKGY [YANKGY-TSK]
bead staining in library immunoassay (red = target specific) (Factor IX zymogen [2]): red bead | Factor IX detected in NaCl peak by ELISA, % of amount injected (Factor IX zymogen [3]; 220 μg Factor IX in HSA): 17% | Factor IX detected in acid peak by ELISA, % of amount injected (Factor IX zymogen [3]; 220 μg Factor IX in HSA): 25% | Factor IX detected in flow through peak by ELISA (Factor IX zymogen [3]; 220 μg Factor IX in HSA): No Factor IX was detected | Factor IX in NaCl wash and acid peak by Western blot (Factor IX zymogen [3]; 220 μg Factor IX in HSA): dark bands corresponding to Factor IX | Factor IX in flow-through fractions by Western blot (Factor IX zymogen [3]; 220 μg Factor IX in HSA): no detectable Factor IX | binding of Factor IX to peptide-resin (Factor IX zymogen [3]; Factor IX in 0.5% HSA, acid elution): does bind Factor IX | approximate purification of Factor IX from plasma (Factor IX zymogen [1]; one pass, by total protein and Western blot): ~200 fold | HSA binding to column [4]: bound to the column to a small extent

YNFEVL [YNFEVL-TSK]
elution of bound RNase S protein (RNase S protein): target protein eluted in the acid wash | frequency of dark blue beads (non-specific or immunoreagent-specific interactions) [5]: less than 0.01% | frequency of red beads (target protein interacting with peptide-resin beads) ([5]; RNase S protein in HSA carrier): 5%

YNYFNQ
bead staining in library immunoassay (red = target specific) (Factor IX zymogen [2]): red bead

Reference: patent publication US5834318A, “Screening of combinatorial peptide libraries for selection of peptide ligand useful in affinity purification of target proteins” (Bayer Corporation, priority 1995, dated 1998)
